These compounds were tested against human fatty acid synthase FASN (Homo sapiens (Human), UniProt P49327) (assay: Biochemical activity testing of human fatty acid synthase FASN (NADPH fluorescence intensity enzyme assay)). Conditions: human recombinant full-length fatty acid synthase.
Chain of human fatty acid synthase FASN (P49327 whole entry): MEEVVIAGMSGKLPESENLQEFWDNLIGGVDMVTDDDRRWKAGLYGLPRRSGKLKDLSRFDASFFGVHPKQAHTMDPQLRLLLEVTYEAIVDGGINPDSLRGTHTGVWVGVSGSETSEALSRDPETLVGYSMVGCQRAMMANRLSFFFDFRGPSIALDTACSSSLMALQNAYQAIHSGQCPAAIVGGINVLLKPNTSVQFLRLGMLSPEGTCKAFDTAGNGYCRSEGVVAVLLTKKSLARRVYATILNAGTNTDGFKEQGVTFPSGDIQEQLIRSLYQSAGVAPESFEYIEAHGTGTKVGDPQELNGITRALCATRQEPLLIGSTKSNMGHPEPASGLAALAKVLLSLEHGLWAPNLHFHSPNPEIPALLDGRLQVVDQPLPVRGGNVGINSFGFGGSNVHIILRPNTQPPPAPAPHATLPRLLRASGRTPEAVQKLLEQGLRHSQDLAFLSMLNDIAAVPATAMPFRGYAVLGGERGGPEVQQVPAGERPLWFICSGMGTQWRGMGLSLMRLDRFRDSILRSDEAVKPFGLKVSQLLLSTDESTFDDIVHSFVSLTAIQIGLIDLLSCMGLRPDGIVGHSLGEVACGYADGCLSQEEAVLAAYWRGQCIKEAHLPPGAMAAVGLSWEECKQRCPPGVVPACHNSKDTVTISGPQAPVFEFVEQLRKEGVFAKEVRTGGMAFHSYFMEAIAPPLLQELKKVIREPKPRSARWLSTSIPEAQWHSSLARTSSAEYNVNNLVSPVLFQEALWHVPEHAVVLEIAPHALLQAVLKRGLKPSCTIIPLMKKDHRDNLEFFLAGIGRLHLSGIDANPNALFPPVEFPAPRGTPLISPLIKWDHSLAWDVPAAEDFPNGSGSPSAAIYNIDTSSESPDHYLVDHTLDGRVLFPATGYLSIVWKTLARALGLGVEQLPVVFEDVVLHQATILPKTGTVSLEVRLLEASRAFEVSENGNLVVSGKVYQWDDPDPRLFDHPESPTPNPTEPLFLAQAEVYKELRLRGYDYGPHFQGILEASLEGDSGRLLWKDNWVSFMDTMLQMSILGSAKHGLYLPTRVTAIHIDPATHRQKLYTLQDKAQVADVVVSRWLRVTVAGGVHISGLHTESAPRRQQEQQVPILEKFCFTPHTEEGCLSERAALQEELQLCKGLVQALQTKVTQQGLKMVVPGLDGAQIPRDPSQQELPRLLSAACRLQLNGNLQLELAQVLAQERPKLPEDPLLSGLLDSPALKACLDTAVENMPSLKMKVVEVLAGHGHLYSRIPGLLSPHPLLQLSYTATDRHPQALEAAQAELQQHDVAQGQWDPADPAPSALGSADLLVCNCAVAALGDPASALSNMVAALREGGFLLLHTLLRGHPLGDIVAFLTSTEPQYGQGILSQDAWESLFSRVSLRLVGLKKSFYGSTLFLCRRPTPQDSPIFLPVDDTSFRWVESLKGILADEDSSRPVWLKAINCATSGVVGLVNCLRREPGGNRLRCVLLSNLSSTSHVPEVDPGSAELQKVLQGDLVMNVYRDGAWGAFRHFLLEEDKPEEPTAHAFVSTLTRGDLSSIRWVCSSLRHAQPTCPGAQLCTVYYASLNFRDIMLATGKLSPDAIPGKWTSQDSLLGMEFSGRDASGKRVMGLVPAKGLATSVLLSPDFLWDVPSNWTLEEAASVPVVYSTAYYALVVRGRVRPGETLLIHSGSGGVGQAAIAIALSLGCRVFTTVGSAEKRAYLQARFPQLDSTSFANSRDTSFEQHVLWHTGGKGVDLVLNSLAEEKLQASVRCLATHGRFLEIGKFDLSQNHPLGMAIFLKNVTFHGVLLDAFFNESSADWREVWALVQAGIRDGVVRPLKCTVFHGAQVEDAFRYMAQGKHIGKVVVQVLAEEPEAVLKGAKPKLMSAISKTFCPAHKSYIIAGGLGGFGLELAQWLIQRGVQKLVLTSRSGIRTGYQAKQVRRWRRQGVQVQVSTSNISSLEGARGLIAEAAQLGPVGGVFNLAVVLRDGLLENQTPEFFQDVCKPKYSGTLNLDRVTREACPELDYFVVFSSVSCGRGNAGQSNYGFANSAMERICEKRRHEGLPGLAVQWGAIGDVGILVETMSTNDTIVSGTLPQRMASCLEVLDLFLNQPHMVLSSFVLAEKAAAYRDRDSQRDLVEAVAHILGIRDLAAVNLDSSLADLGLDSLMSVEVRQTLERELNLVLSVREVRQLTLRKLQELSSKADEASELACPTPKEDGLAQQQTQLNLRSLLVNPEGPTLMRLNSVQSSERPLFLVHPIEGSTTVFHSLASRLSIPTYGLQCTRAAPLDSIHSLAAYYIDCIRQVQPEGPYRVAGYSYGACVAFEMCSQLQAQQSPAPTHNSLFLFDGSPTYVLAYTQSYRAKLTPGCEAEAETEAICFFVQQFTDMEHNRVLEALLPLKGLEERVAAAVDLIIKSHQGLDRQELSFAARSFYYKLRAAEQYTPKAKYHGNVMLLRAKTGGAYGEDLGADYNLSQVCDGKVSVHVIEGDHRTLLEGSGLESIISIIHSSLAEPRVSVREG
Excerpt: Biochemical activity testing of human fatty acid synthase FASN
Fatty acid synthase FASN is a multifunctional enzyme with seven catalytic activities thereby synthesising long chain fatty acids especially palmitoyl-CoA in the presence of co-factor NADPH starting from the substrates acetyl-CoA and malonyl-CoA. The reductive synthesis is realized by the oxidation of NADPH to NADP. Since NADPH has a high fluorescence intensity quantum yield compared to NADP with excitation at 340 nm and emission at 460 nm, the reaction can be monitored via the decrease in fluorescence intensity. The biochemical FASN activity testing was performed as 384 well two-time-point kinetic fluorescence intensity assay format in Greiner low volume medium binding 384-well black microtiter plates in a total assay volume of 8 μl and was used for high throughput screen. In each well 3 μl 40 nM human recombinant full-length fatty acid synthase (produced in-house in SF9 cells) were dispensed in the following assay buffer: 50 mM potassium phosphate buffer pH 7.0, 0.005% (w/v) BSA, 2 mM Glutathione, 0.02% Tween-20. Then 2 μl of 200 μM NADPH in assay buffer were added, followed by the addition of the test compounds in 10 dilution concentrations starting with 30 μM (final concentration) to get a final DMSO content of 1% (v/v). The mixture was incubated for at least 15 min at room temperature. After the pre-incubation the enzymatic reaction was started by the addition of 2 μl substrate solution (80 μM acetyl-CoA, 240 μM malonyl-CoA). A first fluorescence intensity measurement (time point one) was performed with an Envision multimode reader (Perkin Elmer LAS Germany GmbH) at excitation wavelength 340 nm (lamp mode) and emission wavelength 460 nm. The reaction was incubated for 30 minutes at room temperature. After this the fluorescence intensity was measured again in the Envision using the same parameters as described above (second time point measurement). The data were analysed by subtracting the first time point measurement value from the second time point measurement value (after the enzymatic reaction). The differences of the emission signals were determined. These reflect directly the conversion rate of NADPH. The full value used was the inhibitor-free reaction. A pharmacological zero value was used like GSK837149A (Sigma-Aldrich) in a final concentration of 5-10 μM. The inhibitory values (IC50) were determined using either the program Symyx Assay Explorer® or Condosseo® from GeneData.
An IC50 of 300 to 3000 nM was found for CCC(=O)N[C@H]1CC[C@@H](N(C)C(=O)c2ccc(-c3cc(F)c4[nH]ccc4c3)nc2)C1 [Compound A134, 6-(7-fluoro-1H-indol-5-yl)-N-methyl-N-((1R,3S)-3-propionylamino-cyclopentyl)-nicotinamide] in this work. An IC50 of under 300 nM was found for CCC(=O)N[C@H]1CC[C@@H](N(C)C(=O)c2ccc(-c3ccc4[nH]ccc4c3)cc2F)C1 [Compound A106, 2-fluoro-4-(1H-indol-5-yl)-N-methyl-N-((1R,3S)-3-propionylamino-cyclopentyl)-benzamide] in this work. An IC50 of under 300 nM was found for CCC(=O)N[C@H]1CC[C@@H](N(C)C(=O)c2ccc(-c3ccc(C(=O)O)c(C)c3)cc2)C1 [Compound A52, 3-methyl-4′-[methyl-((1R,3S)-3-propionylamino-cyclopentyl)-carbamoyl]-biphenyl-4-carboxylic acid] in this work. An IC50 of 300 to 3000 nM was found for CCC(=O)N[C@H]1CC[C@@H](N(C)C(=O)c2cnc(-c3cc(F)c4[nH]ccc4c3)cc2C)C1 [Compound A141, 6-(7-fluoro-1H-indol-5-yl)-4,N-dimethyl-N-((1R,3S)-3-propionylamino-cyclopentyl)-nicotinamide] in this work. An IC50 of under 300 nM was found for CCC(=O)N[C@H]1CC[C@@H](N(C)C(=O)c2ccc(-c3ccc(-n4cccn4)cc3)cc2)C1 [Compound A68, 4′-pyrazol-1-yl-biphenyl-4-carboxylic acid methyl-((1R,3S)-3-propionylamino-cyclopentyl)-amide] in this work. An IC50 of under 300 nM was found for CN(C(=O)c1ccc(-c2nc3cc(Cl)ccc3o2)cc1)[C@@H]1CC[C@H](NC(=O)[C@@H]2CCCO2)C1 [Compound A174] in this work. An IC50 of under 300 nM was found for CCC(=O)N[C@H]1CC[C@@H](N(C)C(=O)c2ccc(-c3ccc4c(cnn4C)c3)cc2)C1 [Compound A75, N-methyl-4-(1-methyl-1H-indazol-5-yl)-N-((1R,3S)-3-propionylamino-cyclopentyl)-benzamide] in this work. An IC50 of under 300 nM was found for CCC(=O)N[C@H]1CC[C@@H](N(C)C(=O)c2ccc(-c3ccc(C)cc3C)cc2)C1 [Compound A90, 2′,4′-dimethyl-biphenyl-4-carboxylic acid methyl-((1R,3S)-3-propionylamino-cyclopentyl)-amide] in this work. An IC50 of 3000 to 50000 nM was found for CCC(=O)N[C@H]1CC[C@@H](N(C)C(=O)c2ccc(-c3ccc(C(C)(C)C)cc3)cc2)C1 [Compound A55, tert-butyl-biphenyl-4-carboxylic acid methyl-((1R,3S)-3-propionylamino-cyclopentyl)-amide] in this work. An IC50 of under 300 nM was found for CCC(=O)N[C@H]1CC[C@@H](N(C)C(=O)c2cnc(-c3ccc4[nH]ccc4c3)nc2)C1 [Compound A139, 2-(1H-indol-5-yl)-pyrimidine-5-carboxylic acid methyl-((1R,3S)-3-propionylamino-cyclopentyl)-amide] in this work. An IC50 of under 300 nM was found for CCC(=O)N[C@H]1CC[C@@H](N(C)C(=O)c2ccc(-c3ccc4[nH]ncc4c3)cc2)C1 [Compound A84, 4-(1H-indazol-5-yl)-N-methyl-N-((1R,3S)-3-propionylamino-cyclopentyl)-benzamide] in this work. An IC50 of 300 to 3000 nM was found for CCC(=O)N[C@H]1CC[C@@H](N(C)C(=O)c2ccc(-c3ccc(OC(F)(F)F)cc3)cc2)C1 [Compound A62, 4′-trifluoromethoxy-biphenyl-4-carboxylic acid methyl-((1R,3S)-3-propionylamino-cyclopentyl)-amide] in this work. An IC50 of under 300 nM was found for CCC(=O)N[C@H]1CC[C@@H](N(C)C(=O)c2ncc(-c3ccc4c(ccn4C)c3)cn2)C1 [Compound A133, 5-(1-methyl-1H-indol-5-yl)-pyrimidine-2-carboxylic acid methyl-((1R,3S)-3-propionylamino-cyclopentyl)-amide] in this work. An IC50 of under 300 nM was found for CCC(=O)N[C@H]1CC[C@@H](N(C)C(=O)c2ccc(-c3cc4cn[nH]c4cc3C)cc2)C1 [Compound A102, N-methyl-4-(6-methyl-1H-indazol-5-yl)-N-((1R,3S)-3-propionylamino-cyclopentyl)-benzamide] in this work. An IC50 of 300 to 3000 nM was found for CO[C@H](C)C(=O)N[C@H]1CC[C@@H](N(C)C(=O)c2ccc(-c3nc4ccccc4o3)cc2)C1 [Compound A32, 4-benzoxazol-2-yl-N-[(1R,3S)-3-((R)-2-methoxy-propionylamino)-cyclopentyl]-N-methyl-benzamide] in this work. An IC50 of under 300 nM was found for CCC(=O)N[C@H]1CC[C@@H](N(C)C(=O)c2ccc(-c3ccc4c(ccn4C)c3)c(F)c2)C1 [Compound A108, 3-fluoro-N-methyl-4-(1-methyl-1H-indol-5-yl)-N-((1R,3S)-3-propionylamino-cyclopentyl)-benzamide] in this work. An IC50 of 300 to 3000 nM was found for CC(=O)NCCC(=O)N[C@H]1CC[C@@H](N(C)C(=O)c2ccc(-c3nc4ccccc4o3)cc2)C1 [Compound A38, N-[(1R,3S)-3-(3-acetylamino-propionylamino)-cyclopentyl]-4-benzoxazol-2-yl-N-methyl-benzamide] in this work. An IC50 of under 300 nM was found for CCC(=O)N[C@H]1CC[C@@H](N(C)C(=O)c2cnc(-c3ccc4[nH]ccc4c3)cn2)C1 [Compound A132, 5-(1H-indol-5-yl)-pyrazine-2-carboxylic acid methyl-((1R,3S)-3-propionylamino-cyclopentyl)-amide] in this work. An IC50 of under 300 nM was found for CCC(=O)N[C@H]1CC[C@@H](N(C)C(=O)c2ccc(-c3ccc(OC(F)F)cc3)cc2)C1 [Compound A85, 4′-difluoromethoxy-biphenyl-4-carboxylic acid methyl-((1R,3S)-3-propionylamino-cyclopentyl)-amide] in this work. An IC50 of 3000 to 50000 nM was found for CC[C@@H](C)CC(=O)N[C@@H]1CC[C@@H](N(C)C(=O)c2ccc(-c3nc4ccccc4o3)cc2)C1 [Compound A168, 4-benzoxazol-2-yl-N-methyl-N-[(1R,3R)-3-((R)-3-methyl-pentanoylamino)-cyclopentyl]-benzamide] in this work. An IC50 of under 300 nM was found for CN(C(=O)c1ccc(-c2nc3ccccc3o2)cc1)[C@@H]1CC[C@H](NC(=O)Cc2ccccc2)C1 [Compound A23, 4-benzoxazol-2-yl-N-methyl-N-((1R,3S)-3-phenylacetylamino-cyclopentyl)-benzamide] in this work. An IC50 of under 300 nM was found for CCC(=O)N[C@H]1CC[C@@H](N(C)C(=O)c2ccc(-c3ccc4c(c3)c(CN)cn4C)cc2)C1 [Compound A152, 4-(3-aminomethyl-1-methyl-1H-indol-5-yl)-N-methyl-N-((1R,3S)-3-propionylamino-cyclopentyl)-benzamide] in this work. An IC50 of 300 to 3000 nM was found for CN(C(=O)c1ccc(-c2nc3ccccc3o2)cc1)[C@@H]1CC[C@H](NC(=O)c2ccncc2)C1 [Compound A22, N-{(1S,3R)-3-[(4-benzoxazol-2-yl-benzoyl)-methyl-amino]-cyclopentyl}-isonicotinamide] in this work. An IC50 of 300 to 3000 nM was found for CCC(=O)N[C@H]1CC[C@@H](N(C)C(=O)c2ccc(-c3ccc(C(C)C)cc3)cc2)C1 [Compound A96, 4′-isopropyl-biphenyl-4-carboxylic acid methyl-((1R,3S)-3-propionylamino-cyclopentyl)-amide] in this work. An IC50 of 3000 to 50000 nM was found for CCC(=O)N[C@H]1CC[C@@H](N(C)C(=O)c2ncc(-c3nc4ccc(Cl)cc4o3)cn2)C1 [Compound A156, 5-(6-chloro-benzoxazol-2-yl)-pyrimidine-2-carboxylic acid methyl-((1R,3S)-3-propionylamino-cyclopentyl)-amide] in this work. An IC50 of 300 to 3000 nM was found for CCC(=O)N[C@H]1CC[C@@H](N(C)C(=O)c2ccc(-c3cc(F)c4c(c3)CCN4)nc2)C1 [Compound A145, 6-(7-fluoro-2,3-dihydro-1H-indol-5-yl)-N-methyl-N-((1R,3S)-3-propionylamino-cyclopentyl)-nicotinamide] in this work. An IC50 of under 300 nM was found for CCC(=O)N[C@H]1CC[C@@H](N(C)C(=O)c2ccc(-c3ccc(C#N)c(F)c3)cc2)C1 [Compound A71, 4′-cyano-3′-fluoro-biphenyl-4-carboxylic acid methyl-((1R,3S)-3-propionylamino-cyclopentyl)-amide] in this work. An IC50 of 3000 to 50000 nM was found for CC(=O)N[C@@H](C)C(=O)N[C@H]1CC[C@@H](N(C)C(=O)c2ccc(-c3nc4ccccc4o3)cc2)C1 [Compound A47, N-[(1R,3S)-3-((S)-2-acetylamino-propionylamino)-cyclopentyl]-4-benzoxazol-2-yl-N-methyl-benzamide] in this work. An IC50 of under 300 nM was found for CCC(=O)N[C@H]1CC[C@@H](N(C)C(=O)c2ccc(-c3ccc4c(c3)NC(=O)C4)cc2)C1 [Compound A60, N-methyl-4-(2-oxo-2,3-dihydro-1H-indol-6-yl)-N-((1R,3S)-3-propionylamino-cyclopentyl)-benzamide] in this work. An IC50 of under 300 nM was found for CCC(=O)N[C@H]1CC[C@@H](N(C)C(=O)c2ccc(C#Cc3ccncc3)cc2)C1 [Compound A15, N-methyl-N-((1R,3S)-3-propionylamino-cyclopentyl)-4-pyridin-4-ylethynyl-benzamide] in this work. An IC50 of under 300 nM was found for CC(=O)N[C@H]1CC[C@@H](N(C)C(=O)c2ccc(-c3nc4ccccc4o3)cc2)C1 [Compound A18, N-((1R,3S)-3-acetylamino-cyclopentyl)-4-benzooxazol-2-yl-N-methyl-benzamide] in this work.
